Data on 1 molecule can be found in US20240124503A1, “HETEROAROMATIC PHOSPHONIUM SALTS AND THEIR USE TREATING CANCER” (FLORATEK PHARMA S.A., priority 2021, published 2024).

Molecules are shown by their SMILES. Some results are limits rather than exact numbers.

The IC50 is the midpoint of a concentration-inhibition curve. What is called Kd is the free concentration of one partner at which half of the binding sites on the other are occupied at equilibrium, for simple one-to-one binding. A high value points to lower affinity.

For one assay, the system named is U-251. The assay can be described thus: Cell viability assay, U-251. The class given is cell-based. The settings on record: Homo sapiens; brain carcinoma cell line U-251. Here is the method:
(§1) Antitumor activity of the compounds and doxorubicin as a positive control was assessed by using the CellTiter-Blue Cell Viability Assay (Promega, #G8082) or CellTiter-Glow® Luminescent Cell Viability assay (Promega #G7572) according to the manufacturer's instructions. The compounds were tested at 5 or 6 concentrations in half-log increments (highest concentration 30 μM or 100 μM) in duplicate or triplicate well conditions.
(§2) Tumor cells were grown at 37° C. in a humidified atmosphere with 5% CO2 in RPMI 1640 or DMEM medium, supplemented with 10% (v/v) fetal calf serum and 50 μg/ml gentamicin for up to 20 passages, and were passaged once or twice weekly. Cells were harvested using TrypLE or PBS buffer containing 1 mM EDTA, and the percentage of viable cells was determined using a CASY Model TI cell counter (OMNI Life Science). Cells were harvested from exponential phase cultures, counted and plated in 96 well flat-bottom microtiter plates at a cell density depending on the cell line's growth rate (4,000-20,000 cells/well depending on the cell line's growth rate, up to 60,000 for hematological cancer cell lines) in RPMI 1640 or DMEM medium supplemented with 10% (v/v) fetal calf serum and 50 μg/ml gentamicin (140 μl/well). […] Viability of cells was quantified by the CellTiter-Blue® cell viability assay (Promega G8081) or CellTiter-Glow® Luminescent Cell Viability assay (Promega #G7572). […]

Another assay concerns SK-N-AS. Briefly: Cell viability assay, SK-N-AS. The settings on record: Homo sapiens; brain carcinoma cell line SK-N-AS. It is filed as cell-based. Here is the method:
as §1, §2

In the next assay the test system is MDA-MB-436. The assay can be described thus: Cell viability assay, MDA-MB-436. Conditions: Homo sapiens; breast carcinoma cell line MDA-MB-436. The class given is cell-based. As for the experimental part:
as §1, §2

A further assay has as its system HCC1806. The assay can be described thus: Cell viability assay, HCC1806. The class given is cell-based. The settings on record: Homo sapiens; breast carcinoma cell line HCC1806. Here is the method:
as §1, §2

For the next assay, the system named is T47D. Briefly: Cell viability assay, T47D. It is filed as cell-based. Conditions: Homo sapiens; breast carcinoma cell line T47D. As for the experimental part:
as §1, §2

The next assay relates to NCI-H460. The assay can be described thus: Cell viability assay, NCI-H460. Conditions: Homo sapiens; lung carcinoma cell line NCI-H460. It is filed as cell-based. Here is the method: as §1, §2
In another assay the target is T1, CDK11 (Homo sapiens, UniProt Q9BWU1).
T1 construct: purchased Eurofins (KINOMEscan); host or cells: E. coli BL21-derived host (T7 phage) or HEK-293
T1 sequence (Q9BWU1 whole entry): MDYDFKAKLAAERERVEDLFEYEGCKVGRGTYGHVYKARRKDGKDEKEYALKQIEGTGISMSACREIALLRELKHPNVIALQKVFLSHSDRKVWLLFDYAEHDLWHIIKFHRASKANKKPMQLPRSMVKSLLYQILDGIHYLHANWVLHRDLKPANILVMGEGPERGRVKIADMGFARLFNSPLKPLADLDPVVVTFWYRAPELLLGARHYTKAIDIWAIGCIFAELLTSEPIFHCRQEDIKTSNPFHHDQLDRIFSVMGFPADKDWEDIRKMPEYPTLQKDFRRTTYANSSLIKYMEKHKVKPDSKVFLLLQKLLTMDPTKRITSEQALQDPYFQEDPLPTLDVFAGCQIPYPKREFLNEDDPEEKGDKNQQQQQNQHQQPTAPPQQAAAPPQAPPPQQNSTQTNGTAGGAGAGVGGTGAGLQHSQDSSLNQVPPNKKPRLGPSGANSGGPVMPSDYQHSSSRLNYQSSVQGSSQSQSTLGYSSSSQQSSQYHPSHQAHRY
The assay can be described thus: KINOMEscan competition binding, CDK11. Here is the method:
Selected compounds were screened for kinase inhibition using the KINOMEscan™ assay (Eurofins) which is based on a competition binding assay that quantitatively measures the ability of a compound to compete with an immobilized, active-site directed ligand. The assay was performed by combining three components: DNA-tagged kinase; immobilized ligand; and the test compound. The ability of the test compound to compete with the immobilized ligand was measured via quantitative PCR of the DNA tag.
Kinase-tagged T7 phage strains were prepared in an E. coli host derived from the BL21 strain. E. coli were grown to log-phase and infected with T7 phage and incubated with shaking at 32° C. until lysis. The lysates were centrifuged and filtered to remove cell debris. The remaining kinases were produced in HEK-293 cells and subsequently tagged with DNA for qPCR detection. Streptavidin-coated magnetic beads were treated with biotinylated small molecule ligands for 30 minutes at room temperature to generate affinity resins for kinase assays. […] Kds were determined using an 11-point 3-fold compound dilution series with three DMSO control points. […] The kinase concentration in the eluates was measured by qPCR. […]
Binding constants (Kds) were calculated with a standard dose-response curve using the Hill equation: Response=Background+[Signal−Background/1+(Kd^Hill Slope/Dose^Hill Slope)] […]

Another assay concerns breast cancer cell. The assay can be described thus: Cell viability, breast cancer cells (panel statement). The class given is cell-based. The settings on record: text summary of Tables 4A & 4B; read-out: IC50, breast cancer cell growth. Here is the method: as §1, §2

Take `COc1c(O)ccc2c(=O)c(O)c(-c3ccc(CCCC[P+](c4ccccc4)(c4ccccc4)c4ccccc4)cc3)oc12` [SND190, (4-(4-(3,7-Dihydroxy-8-methoxy-4-oxo-4H1-chromen-2-yl)phenyl)butyl)triphenylphosphonium bromide]: the IC50 with U-251 was 7540 nM; in the assay with SK-N-AS, 3000 nM; with MDA-MB-436, 2900 nM; in the assay on HCC1806 it was 2800 nM; in the assay on T47D, 1300 nM; in the assay with NCI-H460 it was 8630 nM. The IC50 in the assay with breast cancer cell is less than 5000 nM. The Kd at CDK11 was 3600 nM.
